Assay results taken from publication PMC6389928, “Biomolecular Interaction, Anti-Cancer and Anti-Angiogenic Properties of Cobalt(III) Schiff Base Complexes” (Scientific Reports, 2019).

Test system: CT-DNA
Experiment: Electronic absorption titration of the complexes with CT-DNA
Assay type: binding
Conditions: for intrinsic binding constant Kb: CT-DNA, plot of [DNA]/(εa−εf) vs [DNA]; for percentage of hypochromism (% H) / red shift: absorption spectra on incremental addition of CT-DNA
Description: The absorption spectra of the complexes 1 and 2 were measured in presence and absence of CT-DNA, and the results are shown in Fig. 2.
The value of DNA binding constant (Kb) of the complexes 1 and 2 were calculated using the equation[32], [DNA]/(εa−εf)=[DNA]/(ε0−εf)+1/Kb(ε0−εf) where [DNA] is the concentration of DNA expressed in base pairs; εa is called as apparent extinction coefficient which is determined by calculating Aobs/[complex], εf and ε0 are the apparent free and fully-bound cobalt(III) complex extinction coefficients.
The intrinsic binding constants Kb of complexes 1 and 2 were calculated from the plot of [DNA]/ (εa-εf) versus [DNA] the values are shown in Table 1. […] As both the complexes intercalated with DNA, it is expected that salicylaldehyde aromatic moiety is involved in the intercalation. […] This is due to the presence of additional aromatic phenyl ring in the salophen Schiff base ligand in complex 2 which enhanced stacking interaction between salicylaldehyde aromatic moiety and DNA bases.
Concentrated stock solution of DNA was prepared in PBS and sonicated for 25 cycles, where in each cycle consisted of 30 seconds with 1 min intervals. The DNA concentration per nucleotide was determined by electronic absorption spectroscopy using the known molar extinction coefficient value of 6600 M^−1 cm^−1 at 260 nm[79].
The stock solutions were prepared by dissolving the complexes 1 and 2 in an aqueous solution of DMSO as the co-solvent, and then diluted suitably with the corresponding buffer to the required concentrations for all the experiments. The final DMSO concentration never exceeded 0.5%. For absorption and emission spectral experiments, the DNA solutions were pre-treated with the solutions of metal complexes to ensure no change in the metal complex concentrations.
Absorption studies were performed by maintaining the constant concentration of both the complexes and varying the CT-DNA concentration. An equal amount of CT-DNA was added to the complexes and the reference solution to eliminate the absorbance of CT-DNA itself.

SMILES | intrinsic binding constant Kb [M⁻¹] | percentage of hypochromism (% H) [%] | red shift [nm]
CCCCCCCCCCCC[NH2+][Co-3]123([NH2+]CCCCCCCCCCCC)[O]c4ccccc4C=[N+]1CC[N+]2=Cc1ccccc1[O]3.[O-][Cl+3]([O-])([O-])[O-] [Complex 1, trans-[Co(salen)(DA)2](ClO4)] | 13100 | 31.54 | 10
CCCCCCCCCCCC[NH2+][Co-3]123([NH2+]CCCCCCCCCCCC)[O]c4ccccc4C=[N+]1c1ccccc1[N+]2=Cc1ccccc1[O]3.[O-][Cl+3]([O-])([O-])[O-] [Complex 2, trans-[Co(salophen)(DA)2](ClO4)] | 31500 | 36.81 | 13
